Publication PMC7852567, “A first-in-human phase 1 and pharmacological study of TAS-119, a novel selective Aurora A kinase inhibitor in patients with advanced solid tumours” (British Journal of Cancer, 2020)
Where two headings read alike, the source gives them in different places.

What was measured:
ROS [1] = settings: cited from earlier work
AurB = test system: AurB; parameters: method as in doi:10.1016/S0959-8049(14)70524-6; settings: pre-clinical data; cited from earlier work
AurA = test system: AurA; parameters: method as in doi:10.1016/S0959-8049(14)70524-6; settings: pre-clinical data; cited from earlier work
RET = test system: RET; parameters: method as in doi:10.1016/S0959-8049(14)70524-6; settings: pre-clinical data; cited from earlier work
[2] = test system: patients with advanced, refractory, solid tumours; assay: First-in-human phase 1 study: safety, tolerability, DLT, MTD, RP2D; type: in vivo; settings: for DLT events in words: cycle 1
Procedure: This multicentre study (six centres) consisted of a dose escalation part with a 3 + 3 design to explore safety and tolerability. Patients were enrolled into predefined dose levels (DLs; 70, 150, 200, 250, 300 mg BID) utilising a 4 days on/3 days off schedule 3 out of 4 weeks (intermittent schedule). The rationale for this intermittent schedule was based on pre-clinical data showing a more favourable toxicity profile, compared to continuous dosing regimens while maintaining antitumour activity. In addition to the 4 days on/3 days off, 3 out of 4 weeks schedule, a continuous dosing (200 mg BID) schedule with the same weekly schedule (4 days on/3 days off) administered 4 out of 4 weeks, was explored in the escalation phase. A minimum of 3 patients were to be treated at each DL, and at least 6 patients were planned to be enrolled at the MTD level. The MTD was defined as the highest DL at which <33% of patients experienced a dose-limiting toxicity (DLT) during cycle 1. The RP2D was defined as a dose below or equal to the MTD based on the evaluation of all available information (tolerability in cycles after cycle 1, PK, PD or other safety information). The RP2D was used in the expansion part of this study. Based on the safety profile assessed in the dose escalation part of this study, either the intermittent (3 out of 4 weeks) or the continuous dosing schedule (4 out of 4 weeks) could be selected.
TAS-119 was administered orally BID as tablets of 25 and 100 mg strength, on an empty stomach. Based on rodent toxicology data, 70 mg BID was determined as the starting dose after conversion from the severely toxic dose in 10% of exposed animals (STD10) (63 mg/kg BID) to one tenth of the human equivalent dose. […] Non-haematological DLTs consisted of grade ≥3 toxicity (excluding nausea/vomiting lasting <48 h and controlled by anti-emetic therapy, diarrhoea lasting <48 h and responsive to anti-diarrhoea medication or hypersensitivity reactions), whereas haematological DLT consisted of any grade 4 neutropenia lasting >7 days, any febrile neutropenia (documented absolute neutrophil count <1000/mm^3) lasting >1 h, any grade 4 thrombocytopenia or grade 3 thrombocytopenia associated with bleeding and requiring blood transfusion.
Vital sign assessment, blood cell count, serum biochemistry, coagulation parameters, urinalysis, a 12-lead electrocardiogram and, if applicable, a pregnancy test were performed at baseline. In addition, after the amendment of the protocol (Amendment 2: 31-March-2015) an ophthalmologic assessment, including visual acuity, pupil shape and pupillary reflexes, extraocular motility (eye movement) and alignment, tonometry, visual field, external examination, slit-lamp examination, and fundoscopy, was performed and repeated in all patients on days 8 and 22 during cycle 1 and on day 1 of every subsequent cycle, beginning with cycle 3. This was a consequence of ocular toxicity observed in 2 out of 26 patients until that moment.
(§1) Adverse events (AEs) at baseline and during the study were recorded and graded based on the Common Terminology Criteria for Adverse Events v4.03. Tumour measurements were done at the end of every second cycle or as per the Institutional standard of care in case of clinical indications. Response were assessed using Response Evaluation Criteria in Solid Tumours (RECIST) v1.1.[19]

TRK-B = test system: TRK-B; parameters: method as in doi:10.1016/S0959-8049(14)70524-6; settings: pre-clinical data; cited from earlier work
[3] = cited from earlier work
[4] = Plasma and urine pharmacokinetics in patients (LC-MS/MS, non-compartmental); type: in vivo, human; settings: for mean ratio of AUC0 − last (accumulation): RP2D level DL 2.1, 200 mg BID; for Tmax: po, all dose levels; for CL renal: urine, urine 0 to 12 h, cycle 1 day 1
Procedure: Blood samples for PK analysis were collected in cycle 1, on days 1, 4 and 18 pre-dose and at 0.5, 1, 2, 3, 5, 8, and 12 h post-dose. Urine samples were collected on day 1 of cycle 1 before dosing and from 0 to 12 h after dosing. Plasma and urine concentrations of TAS-119 were determined by validated liquid chromatography–tandem mass spectrometry method. PK parameters included the peak plasma concentration (Cmax), time to reach maximum concentration in plasma (Tmax), area under the plasma concentration–time curve up to the last observable concentration (AUC0 − last) and up to infinity (AUC0 − inf), terminal phase elimination half-life (T1/2), clearance (CL/F), apparent volume of distribution (Vd/F), renal clearance (CLr) and oral clearance (CL/F).
The influence of polymorphisms of SLCO1B1 encoding the drug influx transporter OATP1B1 was examined in a blood sample obtained pre-dose on day 1 of cycle 1 for all patients during the dose escalation part. MYC amplification and β-catenin mutation were assessed in archival formalin-fixed paraffin-embedded tumour samples obtained after enrolment of the patient into the study.
Descriptive statistics were used to summarise safety data (AEs, vital signs and clinical laboratory results) overall response based on RECIST, PK and PD data. PK parameters were calculated by standard non-compartmental methods using Phoenix^TMWinNonlin® (Ver 6.3 or later, Certara L.P.). Dose proportionality of TAS-119 was evaluated with a power model and a linear regression model using logarithmic values of PK parameters such as Cmax and AUCs, as well as a one-way analysis of variance (ANOVA) using dose-normalised parameters such as Cmax, AUCs, CL/F, and apparent volume of distribution (Vd/F). Student’s t test was used to test statistical significance of the PD data and calculate the mean ratio for AUC0 − last at RP2D or MTD. Influence of SLCO1B1 genotypes on PK parameters was tested by ANOVA.

[5] = in vivo; cited from earlier work
TRK-C = test system: TRK-C; parameters: method as in doi:10.1016/S0959-8049(14)70524-6; settings: pre-clinical data; cited from earlier work
TRK-A = test system: TRK-A; parameters: method as in doi:10.1016/S0959-8049(14)70524-6; settings: pre-clinical data; cited from earlier work
[6] = test system: cancer cells with MYC oncogene amplifications and/or mutations in the Wnt/β-catenin pathway; parameters: method as in PMID 22222631, doi:10.15761/IMM.1000162; settings: cited from earlier work
[7] = test system: BORA, SGOL2, KIF20A and DEPDC-1; assay: mRNA expression of mitosis genes by RT-PCR in tissue samples; type: in vivo, human; settings: 32 patients from the dose escalation part
Procedure: (§2) Blood and tissue samples were taken for PD on-target effects during mitosis of TAS-119. First, the rate of phosphorylated histone H3 (pHH3) immunohistochemistry-positive cells to total cells were measured in paired skin biopsies and paired tumour samples collected prior to first TAS-119 administration as well as after receiving TAS-119 on day 4 of cycle 1. In case of target engagement, an increase in pHH3 is expected because of cells that will stagnate in mitosis. Second, pre- and post-dose mRNA expression of genes involved in mitosis, BORA, SGOL2, KIF20A and DEPDC-1, was analysed in tissue samples by reverse transcriptase-polymerase chain reaction.

advanced solid tumours = assay: Antitumour activity by RECIST v1.1; type: in vivo, human
Procedure: as §1
Planned enrolment in the dose escalation part included 18–30 evaluable patients, with 3–6 DLT evaluable patients in each DL. To further assess the feasibility as well as preliminarily efficacy of the RP2D, approximately 40 patients were planned to be enrolled into the expansion part (approximately 10–15 patients in each of the expansion cohorts). An additional 20 patients were pre-planned to be enrolled in an extension of the expansion part provided that either an overall response rate (ORR) of ≥20% for each specific indication or ≥10% for patients with MYC-amplified or β-catenin-mutated tumours had been observed.

ROS [8] = test system: ROS; parameters: method as in doi:10.1016/S0959-8049(14)70524-6; settings: pre-clinical data; cited from earlier work
[9] = test system: phosphorylated histone H3 (pHH3); assay: pHH3 immunohistochemistry in paired skin biopsies and paired tumour samples; type: in vivo, human
Procedure: as §2

AurC = test system: AurC; parameters: method as in doi:10.1016/S0959-8049(14)70524-6; settings: pre-clinical data; cited from earlier work

Compound: COc1cc(Nc2ncc3c(n2)-c2ccc(Cl)cc2C(c2c(F)cccc2OC)=NC3)ccc1C(=O)O [Alisertib]
- mean inhibition of ROS (ROS [1]): 80%

Compound: Cc1cc(Nc2nc(CC3(C(=O)O)CCN(C(=O)c4cccc(Cl)c4Cl)CC3)ccc2F)n[nH]1 [TAS-119]
- IC50 (AurB): 95 nM
- IC50 (AurA): 1.04 nM
- IC50 (RET): 25.8 ± 1.5 nM
- maximum tolerated dose (MTD) ([2]; 4 days on/3 days off, 3 out of 4 weeks): 250 mg BID
- DLT events in words ([2]; DL 2.2, 250 mg BID): one patient with grade 2 AEs of fatigue, corneal epithelial microcysts and nausea
- DLT events in words ([2]; DL 3, 300 mg BID, 2 patients): SAE of corneal microcysts, grade 2 and 3
- AE with the outcome of death ([2]; escalation part, one patient at DL 2 (150 mg BID), disease progression, deemed not study treatment related): 3%
- AEs with the outcome of death ([2]; expansion part): No AEs with the outcome of death
- AE: Alkaline phosphatase increase ([2]; human, in vivo): 7 (17.5) n, %
- AE: Amylase increase ([2]; human, in vivo): 4 (10.0) n, %
- AE: Gamma-glutamyltransferase increase ([2]; human, in vivo): 7 (17.5) n, %
- AE: Headache ([2]; human, in vivo): 5 (12.5) n, %
- AE: Hyperglycaemia ([2]; human, in vivo): 5 (12.5) n, %
- AE: Hypoalbuminaemia ([2]; human, in vivo): 5 (12.5) n, %
- AE: Hypokalaemia ([2]; human, in vivo): 4 (10.0) n, %
- AE: Hypotension ([2]; human, in vivo): 5 (14.7) n, %
- AE: Pruritis ([2]; human, in vivo): 4 (10.0) n, %
- AE: Upper respiratory tract infection ([2]; human, in vivo): 5 (12.5) n, %
- AE: Urinary tract infection ([2]; human, in vivo): 6 (15.0) n, %
- AE: Weight loss ([2]; human, in vivo): 4 (11.8) n, %
- AEs leading to discontinuation of study drug ([2]; human, in vivo): 12%
- AEs leading to discontinuation of the study drug ([2]; human, in vivo): 8%
- dose dependence of ocular toxicity ([2]; human, in vivo): dose dependent and only seen at doses of 200 mg BID and above
- grade ≥3 diarrhoea ([2]; human, in vivo): 5/74
- grade ≥3 increased lipase without symptoms of pancreatitis ([2]; human, in vivo): 9/74
- ocular side effects, in total ([2]; human, in vivo): 9 patients
- ocular toxicity throughout the various DLs ([2]; human, in vivo): 38 % of the patients
- recommended phase 2 dose (RP2D) ([2]; human, in vivo): 200 mg BID
- treatment-related AEs leading to discontinuation of study drug ([2]; human, in vivo): 9%
- patients with DLT during cycle 1 ([2]; in vivo): Five
- patients with an ocular DLT ([2]; in vivo): four
- treatment-related AEs leading to discontinuation of the study drug ([2]; in vivo): none
- IC50 (TRK-B): 1.53 ± 0.12 nM
- microscopic findings in pre-clinical high-dose toxicity study ([3]; animals, considerable individual variation): degeneration and regeneration or hyperplasia of epithelial tissue
- vomiting and liquid faeces, cyclic administration versus daily administration ([3]; cyclic administration 4 days on/3 days off, pre-clinical): less frequent vomiting and liquid faeces
- microscopic findings in pre-clinical high-dose toxicity study, eyes ([3]; only in dogs): involvement of the epithelium of the eyes
- increase of plasma exposure with dose ([4]; 70–300 mg BID, power model, linear model and one-way ANOVA): dose-proportional
- CL/F and Vd/F among SLCO1B1 polymorphism-caused phenotypes (normal/intermediate/low) ([4]; ANOVA): no statistical differences
- mean ratio of AUC0 − last (accumulation) ([4]; day 4): 1.3
- mean ratio of AUC0 − last (accumulation) ([4]; day 18): 1.2
- ratio of AUC0 − last (accumulation) ([4]; continuous 200 mg BID schedule (DL 2.1), day 18): 1.1
- accumulation ratios throughout all DLs ([4]; human, in vivo): low
- half-life ([4]; human, plasma, oral, blood concentrations, across dose levels): 2.8 to 6 h
- Tmax ([4]; human, plasma, plasma, oral, read-out: Tmax range): 0.5 to 2 h
- Tmax ([4]; human, plasma, plasma, oral, read-out: median Tmax): 1.2 h
- CL renal ([4]; human, oral, read-out: CLr (renal clearance), median (converted)): 4.17 mL/min
- CL renal ([4]; human, oral, read-out: CLr (renal clearance), range): 2.5 to 5.17 mL/min
- oral clearance (CL/F), median ([4]; plasma): 9.79 L/h
- oral clearance (CL/F), range ([4]; plasma): 2.72 to 13.94 L/h
- severely toxic dose in 10% of exposed animals (STD10) [5]: 63 mg/kg BID
- IC50 (TRK-C): 1.47 ± 0.04 nM
- IC50 (TRK-A): 1.46 ± 0.16 nM
- growth inhibitory effects on cancer cells with MYC amplifications and/or Wnt/β-catenin pathway mutations [6]: more potent growth inhibitory effects
- mRNA expression level of mitosis genes after dosing [7]: no significant increase
- patients with stable disease as best response (advanced solid tumours; DL 2 (150 mg BID)): 6 patients
- patients with stable disease as best response (advanced solid tumours; DL 2.1 (200 mg BID continuous schedule)): 4 patients
- patients with stable disease as best response (advanced solid tumours; DL 2.1 (200 mg BID)): 4 patients
- complete or partial response (advanced solid tumours; dose escalation part): no complete response (CR) or partial response (PR)
- stable disease as best response (advanced solid tumours; dose escalation part, fourteen patients): 41%
- patients with unconfirmed PR (advanced solid tumours; epithelial mesothelioma, DL 2 (150 mg BID), at cycle 4): One
- target ORR of 20% (or ≥10% for MYC amplification or β-catenin mutation) (advanced solid tumours; expansion part): not met
- complete or partial response (advanced solid tumours; expansion part, 200 mg BID): no confirmed CR or PR
- patients with stable disease (advanced solid tumours; expansion part, MYC-amp/B-cat mutation-positive tumours): 5 patients
- patients with stable disease (advanced solid tumours; expansion part, SCLC): 5 patients
- patients with stable disease (advanced solid tumours; expansion part, basket cohort (1 mesothelioma, 1 colorectal cancer)): 2 patients
- patients with stable disease (advanced solid tumours; expansion part, breast cancer): 1 patients
- IC50 (ROS [8]): 29.3 ± 0.8 nM
- mean pHH3-positive rate in skin samples after administration ([9]; 55 paired samples, pre-dose versus day 4 of cycle 1, p value <0.0001): increased
- mean pHH3 rate in paired tumour samples ([9]; eight paired tumour samples): did not significantly change
- IC50 (AurC): 36.5 nM
